Drawing on the NIST ThermoML archive (doi:10.1021/je200150r), this text covers viscosity and mass density for three compounds.

A short description of data set [1]: xn = mol fraction of the nth substance listed. Conditions: 101 kPa, Liquid, x2 = 0; for viscosity: Capillary tube (Ostwald / Ubbelohde) method; for mass density: Pycnometric method.
For data set [2] the following is noted: 101 kPa, Liquid; for viscosity: Capillary tube (Ostwald / Ubbelohde) method; for mass density: Pycnometric method.

The structures appear in SMILES notation. ± gives the expanded uncertainty stated by the source.

`CCC(C)=O` [butanone] + OCc1ccccc1: the viscosity in data set [1] (303.15 K) is 0.362 ± 0.005 mPa·s; in data set [1] (308.15 K), 0.345 ± 0.005 mPa·s; in data set [1] (313.15 K) it was 0.33 ± 0.004 mPa·s; in data set [1] (318.15 K) it was 0.316 ± 0.004 mPa·s; in data set [1] (323.15 K) it was 0.303 ± 0.004 mPa·s. The mass density in data set [1] (303.15 K) was found to be 794 ± 0.9 kg/m3; in data set [1] (308.15 K), 788.8 ± 0.9 kg/m3; in data set [1] (313.15 K), 783.5 ± 0.9 kg/m3; in data set [1] (318.15 K) it was 778.3 ± 0.9 kg/m3; in data set [1] (323.15 K), 773 ± 0.9 kg/m3.
For the compound `OCc1ccccc1` [benzenemethanol], the viscosity was determined as 4.689 ± 0.059 mPa·s in data set [2] (303.15 K); 4.058 ± 0.051 mPa·s in data set [2] (308.15 K); 3.531 ± 0.044 mPa·s in data set [2] (313.15 K); 3.103 ± 0.039 mPa·s in data set [2] (318.15 K); 2.747 ± 0.035 mPa·s in data set [2] (323.15 K). The mass density in data set [2] (303.15 K) was 1037.6 ± 0.9 kg/m3; in data set [2] (308.15 K) it was 1033.8 ± 0.9 kg/m3; in data set [2] (313.15 K), 1030.1 ± 0.9 kg/m3; in data set [2] (318.15 K), 1026.3 ± 0.9 kg/m3; in data set [2] (323.15 K) it was 1022.5 ± 0.9 kg/m3.
Take `CCC(C)=O` [butanone]: the viscosity in data set [2] (303.15 K) is recorded as 0.362 ± 0.005 mPa·s; in data set [2] (308.15 K), 0.345 ± 0.005 mPa·s; in data set [2] (313.15 K), 0.33 ± 0.004 mPa·s; in data set [2] (318.15 K), 0.316 ± 0.004 mPa·s; in data set [2] (323.15 K) it was 0.303 ± 0.004 mPa·s. In addition, the mass density is 794 ± 0.9 kg/m3 in data set [2] (303.15 K); 788.8 ± 0.9 kg/m3 in data set [2] (308.15 K); 783.5 ± 0.9 kg/m3 in data set [2] (313.15 K); 778.3 ± 0.9 kg/m3 in data set [2] (318.15 K); 773 ± 0.9 kg/m3 in data set [2] (323.15 K).
